# Reference: patent US9315498B2, “Arlethynyl derivatives” (Hoffmann-La Roche Inc., priority 2010, dated 2016)
# Biological target: human mGlu5a receptor (Homo sapiens (Human), UniProt P41594)
# Test: Intracellular Ca2+ mobilization assay (mGlu5 PAM)
# Type: cell-based
# Settings: for EC50: HEK-293 cells stably transfected with human mGlu5a, L-glutamate added at EC20 after pre-incubation with test compound, read-out: EC50 (nM) mGlu5PAM; for Emax: maximal response in % of the maximal stimulatory effect obtained with saturating concentrations of L-glutamate, read-out: Eff. (%)
# Procedure: A monoclonal HEK-293 cell line stably transfected with a cDNA encoding for the human mGlu5a receptor was generated; for the work with mGlu5 Positive Allosteric Modulators (PAMs), a cell line with low receptor expression levels and low constitutive receptor activity was selected to allow the differentiation of agonistic versus PAM activity. Cells were cultured according to standard protocols (Freshney, 2000) in Dulbecco's Modified Eagle Medium with high glucose supplemented with 1 mM glutamine, 10% (vol/vol) heat-inactivated bovine calf serum, Penicillin/Streptomycin, 50 μg/ml hygromycin and 15 μg/ml blasticidin (all cell culture reagents and antibiotics from Invitrogen, Basel, Switzerland).
# About 24 hrs before an experiment, 5×10^4 cells/well were seeded in poly-D-lysine coated, black/clear-bottomed 96-well plates. The cells were loaded with 2.5 μM Fluo-4AM in loading buffer (1×HBSS, 20 mM HEPES) for 1 hr at 37° C. and washed five times with loading buffer. The cells were transferred into a Functional Drug Screening System 7000 (Hamamatsu, Paris, France), and 11 half logarithmic serial dilutions of test compound at 37° C. were added and the cells were incubated for 10-30 min. with on-line recording of fluorescence. Following this pre-incubation step, the agonist L-glutamate was added to the cells at a concentration corresponding to EC20 (typically around 80 μM) with on-line recording of fluorescence; in order to account for day-to-day variations in the responsiveness of cells, the EC20 of glutamate was determined immediately ahead of each experiment by recording of a full dose-response curve of glutamate.
# Responses were measured as peak increase in fluorescence minus basal (i.e. fluorescence without addition of L-glutamate), normalized to the maximal stimulatory effect obtained with saturating concentrations of L-glutamate. Graphs were plotted with the % maximal stimulatory using XLfit, a curve fitting program that iteratively plots the data using Levenburg Marquardt algorithm. The single site competition analysis equation used was y=A+((B−A)/(1+((x/C)D))), where y is the % maximal stimulatory effect, A is the minimum y, B is the maximum y, C is the EC50, x is the log10 of the concentration of the competing compound and D is the slope of the curve (the Hill Coefficient). From these curves the EC50 (concentration at which half maximal stimulation was achieved), the Hill coefficient as well as the maximal response in % of the maximal stimulatory effect obtained with saturating concentrations of L-glutamate were calculated.
# A depression of the signal observed after addition of the EC20 concentration of L-glutamate was indicative of an inhibitory activity of the test compound.
# Chain of human mGlu5a receptor (P41594 other isoform, or with tags, fused parts or gaps): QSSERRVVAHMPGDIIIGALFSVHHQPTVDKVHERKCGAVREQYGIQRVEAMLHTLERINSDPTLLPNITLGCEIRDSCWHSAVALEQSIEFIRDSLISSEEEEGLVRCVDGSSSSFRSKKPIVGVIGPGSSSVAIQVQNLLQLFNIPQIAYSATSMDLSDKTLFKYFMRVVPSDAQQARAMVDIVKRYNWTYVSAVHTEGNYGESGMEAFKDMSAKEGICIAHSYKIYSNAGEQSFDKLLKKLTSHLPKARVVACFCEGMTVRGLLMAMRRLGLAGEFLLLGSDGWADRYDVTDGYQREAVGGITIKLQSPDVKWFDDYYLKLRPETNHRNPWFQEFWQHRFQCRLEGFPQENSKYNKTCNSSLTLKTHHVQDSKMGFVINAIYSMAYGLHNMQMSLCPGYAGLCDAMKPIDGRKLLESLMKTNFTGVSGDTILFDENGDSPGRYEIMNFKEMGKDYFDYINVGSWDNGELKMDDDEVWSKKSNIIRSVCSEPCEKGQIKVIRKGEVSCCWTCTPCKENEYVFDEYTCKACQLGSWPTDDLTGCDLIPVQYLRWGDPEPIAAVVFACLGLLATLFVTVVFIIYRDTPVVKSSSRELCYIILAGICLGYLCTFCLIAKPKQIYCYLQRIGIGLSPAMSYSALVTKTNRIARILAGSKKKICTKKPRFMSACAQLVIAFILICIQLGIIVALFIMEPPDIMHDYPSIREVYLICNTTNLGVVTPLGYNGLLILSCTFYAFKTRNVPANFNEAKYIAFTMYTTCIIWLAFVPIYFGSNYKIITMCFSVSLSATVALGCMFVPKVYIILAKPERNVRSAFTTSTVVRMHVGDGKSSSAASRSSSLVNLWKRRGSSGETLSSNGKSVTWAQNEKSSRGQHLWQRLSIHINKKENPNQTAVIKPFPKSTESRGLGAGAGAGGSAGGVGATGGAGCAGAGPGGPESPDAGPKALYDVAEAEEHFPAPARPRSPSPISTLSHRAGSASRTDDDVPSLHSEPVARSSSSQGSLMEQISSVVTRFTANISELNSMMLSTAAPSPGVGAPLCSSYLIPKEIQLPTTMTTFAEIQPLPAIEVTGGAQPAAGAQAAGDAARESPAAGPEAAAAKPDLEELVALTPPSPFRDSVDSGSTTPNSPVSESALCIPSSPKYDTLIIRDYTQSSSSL
SMILES,EC50 [nM],Emax [%]
"CC1(C)CCN(c2cnc(C#Cc3cccc(F)c3)cn2)C(=O)N1 [Example 166, 1-(5-((3-Fluorophenyl)ethynyl)pyrazin-2-yl)-4,4-dimethyltetrahydropyrimidin-2(1H)-one]",140,56
"O=C1O[C@H]2CCC[C@H]2N1c1ccc(C#Cc2ccccc2)cn1 (racemic) [Example 22, (3aRS,6aSR)-3-(5-Phenylethynyl-pyridin-2-yl)-hexahydro-cyclopentaoxazol-2-one]",14,74
"O=C1OC2(CC2)CN1c1ccc(C#Cc2cccnc2)cn1 [Example 36, 6-(5-Pyridin-3-ylethynyl-pyridin-2-yl)-4-oxa-6-aza-spiro[2.4]heptan-5-one]",58,80
"CC1(C)CC(=O)N(c2ccc(C#Cc3ccccc3)cn2)C1 [Example 13, 4,4-Dimethyl-1-(5-phenylethynyl-pyridin-2-yl)-pyrrolidin-2-one]",37,129
"CC(C)(C)C1CN(c2ccc(C#Cc3ccccc3)cn2)C(=O)O1 (racemic) [Example 8, (5RS)-5-tert-Butyl-3-(5-phenylethynyl-pyridin-2-yl)-oxazolidin-2-one]",17,62
"CN1C(=O)N(c2ccc(C#Cc3cccc(Cl)c3)nn2)CC1(C)C [Example 155, 1-(6-((3-Chlorophenyl)ethynyl)pyridazin-3-yl)-3,4,4-trimethylimidazolidin-2-one]",73,95
"CC1(C)CCN(c2ncc(C#Cc3cc(F)ccc3F)cn2)C(=O)C1 [Example 136, 1-[5-(2,5-Difluoro-phenylethynyl)-pyrimidin-2-yl]-4,4-dimethyl-piperidin-2-one]",31,49
"CN1C(=O)N(c2ccc(C#Cc3ccccc3)cn2)CC1C1CCCC1 (racemic) [Example 45, (RS)-4-Cyclopentyl-3-methyl-1-(5-phenylethynyl-pyridin-2-yl)-imidazolidin-2-one]",57,97
"CC1(C)CCN(c2ncc(C#Cc3ccccc3)cn2)C(=O)C1 [Example 134, 4,4-Dimethyl-1-(5-phenylethynyl-pyrimidin-2-yl)-piperidin-2-one]",42,90
"CC1N(c2ccc(C#Cc3ccccc3)cn2)C(=O)OC1(C)C (racemic) [Example 27, (RS)-4,5,5-Trimethyl-3-(5-phenylethynyl-pyridin-2-yl)-oxazolidin-2-one]",15,61
"CC1CN(c2ccc(C#Cc3ccccc3)cn2)C(=O)CO1 (racemic) [Example 171, (RS)-6-Methyl-4-(5-phenylethynyl-pyridin-2-yl)-morpholin-3-one]",88,73
"CC1(C)CCC(=O)N(c2ccc(C#Cc3cccc(F)c3)cn2)C1 [Example 43, 5′-(3-Fluoro-phenylethynyl)-5,5-dimethyl-3,4,5,6-tetrahydro-[1,2′]bipyridinyl-2-one]",12,100
"O=C1O[C@H]2CCC[C@@H]2CN1c1ccc(C#Cc2ccccc2)cn1 (racemic) [Example 102, (4aRS,7aSR)-3-(5-Phenylethynyl-pyridin-2-yl)-hexahydro-cyclopenta[e][1,3]oxazin-2-one]",43,115
"COC[C@@H]1CN(c2ccc(C#Cc3ccccc3)cn2)C(=O)O1 (single isomer, unassigned) [Example 4, (5S or 5R)-5-Methoxymethyl-3-(5-phenylethynyl-pyridin-2-yl)-oxazolidin-2-one]",278,98
"Cc1cccc(C#Cc2ccc(N3CC(C)(C)N(C)C3=O)nc2)c1 [Example 56, 3,4,4-Trimethyl-1-(5-m-tolylethynyl-pyridin-2-yl)-imidazolidin-2-one]",87,56
"CC1(C)CN(c2ccc(C#Cc3cncc(F)c3)cn2)C(=O)O1 [Example 29, 3-[5-(5-Fluoro-pyridin-3-ylethynyl)-pyridin-2-yl]-5,5-dimethyl-oxazolidin-2-one]",15,45
"O=C1O[C@H]2CCC[C@H]2N1c1ccc(C#Cc2cncc(F)c2)cn1 (racemic) [Example 24, (3aRS,6aSR)-3-[5-(5-Fluoro-pyridin-3-ylethynyl)-pyridin-2-yl]-hexahydro-cyclopentaoxazol-2-one]",35,73

SMILES,EC50 [nM],Emax [%]
"O=C1[C@H]2CCC[C@H]2N1c1ccc(C#Cc2cccnc2)cn1 (racemic) [Example 98, (1RS,5SR)-6-(5-Pyridin-3-ylethynyl-pyridin-2-yl)-6-aza-bicyclo[3.2.0]heptan-7-one]",39,73
"CC1(C)CC(=O)N(c2ccc(C#Cc3cccnc3)cn2)C1 [Example 38, 4,4-Dimethyl-1-(5-pyridin-3-ylethynyl-pyridin-2-yl)-pyrrolidin-2-one]",33,147
"COC1C(=O)N(c2ccc(C#Cc3cncc(Cl)c3)cn2)CC1(C)C (racemic) [Example 63, (RS)-1-[5-(5-Chloro-pyridin-3-ylethynyl)-pyridin-2-yl]-3-methoxy-4,4-dimethyl-pyrrolidin-2-one]",70,99
"CO[C@H]1C(=O)N(c2ccc(C#Cc3ccccc3)cn2)CC1(C)C (single isomer, unassigned) [Example 62]",12,86
"CC1(C)CC(=O)N(c2ncc(C#Cc3ccccc3)cn2)C1 [Example 115, 4,4-Dimethyl-1-(5-phenylethynyl-pyrimidin-2-yl)-pyrrolidin-2-one]",13,109
"CN1C(=O)N(c2ncc(C#Cc3cccc(F)c3)cn2)CC1(C)C [Example 123, 1-[5-(3-Fluoro-phenylethynyl)-pyrimidin-2-yl]-3,4,4-trimethyl-imidazolidin-2-one]",18,30
"CC1(C)CC(=O)N(c2ncc(C#Cc3cc(F)ccc3F)cn2)C1 [Example 121, 1-[5-(2,5-Difluoro-phenylethynyl)-pyrimidin-2-yl]-4,4-dimethyl-pyrrolidin-2-one]",41,70
"CCN1C(=O)N(c2ccc(C#Cc3ccccc3)cn2)C2CCCCC21 (stereo not drawn) [Example 99, (3aSR,7aRS)-(3aRS,7RS)-1-Ethyl-3-(5-phenylethynyl-pyridin-2-yl)-octahydro-benzoimidazol-2-one]",18,90
"CN1C(=O)N(c2ccc(C#Cc3ccnnc3)cn2)CC1(C)C [Example 52, 3,4,4-Trimethyl-1-(5-pyridazin-4-ylethynyl-pyridin-2-yl)-imidazolidin-2-one]",34,32
"CN1C(=O)N(c2ncc(C#Cc3ccccc3)cn2)CCC1(C)C [Example 137, 3,4,4-Trimethyl-5′-phenylethynyl-3,4,5,6-tetrahydro-[1,2′]bipyrimidinyl-2-one]",66,74
"CC1(C)CCN(c2cnc(C#Cc3cccnc3)cn2)C(=O)C1 [Example 162, 4,4-Dimethyl-1-(5-(pyridin-3-ylethynyl)pyrazin-2-yl)piperidin-2-one]",681,76
"CCN1C(=O)N(c2ccc(C#Cc3cccnc3)cn2)C2CCCCC21 (stereo not drawn) [Example 100, (3aSR,7aRS)-(3aRS,7RS)-1-Ethyl-3-(5-pyridin-3-ylethynyl-pyridin-2-yl)-octahydro-benzoimidazol-2-one]",,64
"CN1C(=O)N(c2ccc(C#Cc3ccccc3)cn2)CC1C(C)(C)C (racemic) [Example 107, (RS)-4-tert-Butyl-3-methyl-1-(5-phenylethynyl-pyridin-2-yl)-imidazolidin-2-one]",59,106
"CO[C@@H]1C(=O)N(c2ncc(C#Cc3ccccc3)cn2)CC1(C)C (single isomer, unassigned) [Example 128]",46,54
"CC1(C)CCN(c2ccc(C#Cc3cccc(F)c3)cn2)C(=O)C1 [Example 88, 5′-(3-Fluoro-phenylethynyl)-4,4-dimethyl-3,4,5,6-tetrahydro-[1,2′]bipyridinyl-2-one]",19,110
"O=C1CS(=O)(=O)CCN1c1ccc(C#Cc2ccccc2)cn1 [Example 173, 1,1-Dioxo-4-(5-phenylethynyl-pyridin-2-yl)-thiomorpholin-3-one]",29,82
